Assay [1] in a line: viability of BHK-21 cells – cell-based, secondary screen, cytotoxicity control for flavivirus guanylyltransferase probe project (AID 624078). It is filed as functional.
Assay [2] is described as follows: viability loss in HepG2 liver cells – cell-based, ATP luminescence, cherry-pick, set 6, cytotoxicity control, dose response (AID 1053125). It is filed as functional.
A short description of assay [3]: cells. The note with it: A549.
Assay [4] can be described thus: cells.
Assay [5] can be described thus: reduced cellular PGC1a acetyl-lysine signal – cell-based, cherry-picked samples, dose response (AID 720514).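 Further: potency may reflect raised or lowered acetylation signal.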 In kind it is functional.
Assay [6] in a line: HepG2 viability loss by ATP level – cell-based, CellTiter-Glo luminescence, cherry-pick, set 4, cytotoxicity control, dose response (AID 743480). It is filed as functional. A general note: Cellular ATP, detected with luciferase, serves as a proxy for viable cell number.
Assay [7] in a line: ATP-based viability loss in HEK293T cells – cell-based, CellTiter-Glo luminescence, cherry-picked samples, set 4, cytotoxicity control, dose response (AID 743441). In kind it is functional. The note with it: HEK293.
Assay [8] in a line: blockers of HIV-1 envelope-mediated cell-cell fusion – cherry-pick, dose response (AID 652057). In kind it is functional, cell-based.
The nature of assay [9]: blockers of HIV-1 ZM109 envelope-driven cell-cell fusion – HeLa effector, CEM target cells, luciferase, cherry-pick, dose response (AID 652058).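 Further: luciferase signal from HIV-1 Env mediated cell-cell fusion of effector and target cells.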 It is filed as functional, cell-based.
Assay [10] can be described thus: HIV-1 AD8 envelope cell-cell fusion blockers – cherry-pick, dose response (AID 652062).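 Further: luciferase signal from cell-cell fusion driven by HIV-1 clade B AD8 Env; potency is for inhibitors of fusion seen as a drop in luminescence.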 It is filed as functional, cell-based.
Assay [11] can be described thus: inhibition of Env-driven cell fusion – HIV entry, plate reader, dry powder, dose response (AID 687023). In kind it is functional, cell-based.
A short description of assay [12]: viability loss in CEM21 cells – cell-based, plate reader, dry powder, cytotoxicity control, dose response (AID 687026). In kind it is functional.
The target of the next assay is Kallikrein-7 (Homo sapiens, UniProt P49862). Nature of the assay: Fluorescence Intensity-based biochemical primary high throughput dose response assay to identify activators of kallikrein-7 (K7) zymogen.
The next assay has as its target Cytochrome P450 3A4 (Homo sapiens, UniProt P08684).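 Further: CYP3A4 tested as one member of a cytochrome P450 panel screen.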
The next assay deals with HEK293. As to the kind of experiment: viability loss in HEK293T cells – cell-based, ATP luminescence, cherry-pick samples, cytotoxicity control, dose response (AID 687005).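 Further: cells exposed to compound for 48 hours.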 In kind it is functional. As to conditions: Homo sapiens.
The nature of assay [13]: HEK293 Cytotoxicity Assay Measured in Cell-Based System Using Plate Reader - 7071-01_Inhibitor_Dose_CherryPick_Activity_Set2. In kind it is functional.
A short description of assay [14]: P. falciparum Dd2 growth inhibitors, dose response, SYBR Green, cherry-picked samples (AID 1159567). It is filed as functional, cell-based.
Assay [15] can be described thus: toxicity to human hepatoma HepG2 cells – cell-based, cherry-picked samples, cytotoxicity control, dose response (AID 1159577). In kind it is functional.
Assay [16] is described as follows: NIH-3T3 fibroblast cytotoxicity, dose response, cytotoxicity control, cell-based, fluorescence, Alamar Blue, secondary assay (AID 2327).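 Further: NIH-3T3 mouse fibroblasts cultured with fluconazole at 8 µg/mL.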 It is filed as functional.
The nature of assay [17]: fluconazole-exposed Candida albicans growth modulators – fluorescence, retest, confirmation (AID 2467). In kind it is functional, cell-based.
The target of assay [18] is T1, Serine/threonine-protein phosphatase (Candida dubliniensis (strain CD36 / CBS 7987 / NCPF 3949 / NRRLY-17841) (Yeast), UniProt B9W6M3).
T1 sequence (B9W6M3 whole entry): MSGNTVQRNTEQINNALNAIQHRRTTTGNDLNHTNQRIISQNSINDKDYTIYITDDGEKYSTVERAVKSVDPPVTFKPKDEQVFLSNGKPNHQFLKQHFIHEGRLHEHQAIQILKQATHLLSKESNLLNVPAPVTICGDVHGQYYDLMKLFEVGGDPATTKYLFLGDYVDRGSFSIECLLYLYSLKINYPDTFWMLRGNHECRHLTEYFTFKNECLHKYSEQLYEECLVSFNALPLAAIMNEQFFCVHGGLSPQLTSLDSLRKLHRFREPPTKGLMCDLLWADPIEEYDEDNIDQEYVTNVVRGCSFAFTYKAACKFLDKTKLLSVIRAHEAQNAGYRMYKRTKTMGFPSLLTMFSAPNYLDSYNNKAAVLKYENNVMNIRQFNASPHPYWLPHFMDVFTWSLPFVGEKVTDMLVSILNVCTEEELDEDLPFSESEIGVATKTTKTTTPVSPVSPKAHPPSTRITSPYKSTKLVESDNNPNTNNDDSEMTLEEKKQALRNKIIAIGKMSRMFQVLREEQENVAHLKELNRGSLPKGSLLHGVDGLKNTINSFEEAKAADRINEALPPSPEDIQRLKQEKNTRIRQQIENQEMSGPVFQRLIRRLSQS
Nature of the assay: blockers of CaCl2-induced CDRE-lacZ signaling – S. cerevisiae, luminescence, secondary, dose response (AID 2388).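 Further: yeast reporter cells carrying a calcineurin-responsive lacZ construct stimulated with calcium chloride; luminescent beta-galactosidase reporter signal in whole cells rather than isolated phosphatase activity; potency for inhibition where a drop in reporter signal means calcineurin blockade.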 It is filed as functional, cell-based.

The target of assay [19] is ATP-dependent molecular chaperone HSP82 (Candida albicans (strain WO-1) (Yeast), UniProt C4YTQ8). As to the kind of experiment: steroid-induced GRE reporter decrease in yeast – S. cerevisiae, luminescence, Hsp90 inhibitor project, dose response (AID 2400).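 Further: beta-galactosidase luminescence from glucocorticoid response element reporter as proxy for Hsp90 function; inhibitor potency where signal loss means Hsp90 inhibition.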 It is filed as functional, cell-based.
Assay [20] in a line: potency of ADAM10 substrate cleavage blockers – biochemical, QFRET, dose response (AID 743254).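 Further: ADAM10 enzyme with the DM2 quenched FRET peptide as substrate; EDANS fluorescence gain as the protease cuts the substrate; inhibitor potency against ADAM10 proteolytic activity.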
Assay [21] concerns the target Disintegrin and metalloproteinase domain-containing protein 17 (Homo sapiens, UniProt P78536). As to the kind of experiment: inhibition of ADAM17 substrate cleavage – biochemical, quenched FRET substrate, counter-screen for ADAM10 exosite inhibitor project, dose response (AID 743253). In general terms: The purpose of a counterscreen is to sort out artefacts and off-target activity.

The nature of assay [22]: Trypanosoma cruzi growth suppression in host cells – NIH3T3 host cells, beta-gal luminescence, confirmation (AID 2044).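 Further: intracellular parasites grown in NIH/3T3 mouse fibroblasts as host cells; luminescent beta-galactosidase reporter signal from transgenic T. cruzi replicating inside host cells; inhibitors lower the luminescence signal.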 In kind it is functional, cell-based.
Assay [23] is described as follows: NIH3T3 cell viability loss – ATP luminescence, mouse fibroblasts, counter-screen, dose response (AID 2010).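 Further: cells exposed to compound for about 90 hours before reading.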 It is filed as functional, cell-based.
The target in the next assay is Paired box protein Pax-8 (Homo sapiens, UniProt Q06710). As to the kind of experiment: PAX8 transcriptional activity inhibition in RMG-I – RMG-I cells, luciferase, cherry-pick, dose response (AID 687027).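 Further: luciferase reporter driven by Pax8 target thyroperoxidase promoter measured by SteadyGlo luminescence.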 It is filed as functional, cell-based.
Assay [24] is described as follows: inhibitors acting on PAX2 in cells – cell-based, plate reader, dry powder samples, selectivity assay for PAX8 inhibitor project, dose response (AID 743048).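 Further: HEK293 cells carrying a WT1 promoter luciferase reporter driven by expressed Pax2; potency is for inhibition of Pax2 driven reporter signal.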 In kind it is functional.
A short description of assay [25]: COV362 cell viability loss – plate reader, dry powder, SA12, cytotoxicity control for PAX8 inhibitor project, dose response (AID 743144). In kind it is functional, cell-based.
Assay [26] is described as follows: toxicity toward immortalized ovarian surface epithelium – cell-based, plate reader, dry powder samples, cytotoxicity control for PAX8 inhibitor project, dose response (AID 743045). In kind it is functional.
A short description of assay [27]: A2780 cell killing – plate reader, dry powder samples, cytotoxicity control, dose response (AID 743046). It is filed as functional, cell-based.
A short description of assay [28]: OVCAR-3 cell viability loss – plate reader, dry powder samples, PAX8 inhibitor project, dose response (AID 743044). In kind it is functional, cell-based.
Assay [29] is described as follows: PAX5 cellular inhibition readout – cell-based, plate reader, dry powder samples, selectivity assay for PAX8 inhibitor project, dose response (AID 743047).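 Further: HEK293 cells carrying a Pax5 driven CD19 promoter luciferase reporter; potency of inhibitors that lower reporter luminescence.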 In kind it is functional.
A short description of assay [30]: OVCAR4 cell viability loss – plate reader, dry powder, SA11, cytotoxicity control for PAX8 inhibitor project, dose response (AID 743150). The note with it: OVCAR-4. It is filed as functional, cell-based.
Assay [31] can be described thus: COV434 cell viability loss – plate reader, dry powder, SA7, cytotoxicity control for PAX8 inhibitor project, dose response (AID 743145). In kind it is functional, cell-based.
A short description of assay [32]: OV-90 cell viability loss – plate reader, dry powder, SA8, PAX8 inhibitor project, dose response (AID 743149). It is filed as functional, cell-based.
A short description of assay [33]: PAX8-dependent cell viability loss – plate reader, dry powder, dose response (AID 743049). In kind it is functional, cell-based.
Assay [34] can be described thus: Late stage assay provider results from the probe development effort to identify inhibitors of the Plasmodium falciparum M18 Aspartyl Aminopeptidase (M18AAP): radiolabel-based cell-based dose response assay to identify compounds that inhibit P. falciparum growth in RBCs, Set 2.. In kind it is functional.

The source made the active and inactive calls.

The CC50 is the concentration giving 50% cytotoxicity. What is called AC50 is the concentration at which the activity in the assay is half-maximal. As a reminder, the EC50 is the midpoint of the concentration-response curve. One may read the IC50 as the concentration at which inhibition is half-maximal.

Sequence of Paired box protein Pax-8 (Q06710 whole entry): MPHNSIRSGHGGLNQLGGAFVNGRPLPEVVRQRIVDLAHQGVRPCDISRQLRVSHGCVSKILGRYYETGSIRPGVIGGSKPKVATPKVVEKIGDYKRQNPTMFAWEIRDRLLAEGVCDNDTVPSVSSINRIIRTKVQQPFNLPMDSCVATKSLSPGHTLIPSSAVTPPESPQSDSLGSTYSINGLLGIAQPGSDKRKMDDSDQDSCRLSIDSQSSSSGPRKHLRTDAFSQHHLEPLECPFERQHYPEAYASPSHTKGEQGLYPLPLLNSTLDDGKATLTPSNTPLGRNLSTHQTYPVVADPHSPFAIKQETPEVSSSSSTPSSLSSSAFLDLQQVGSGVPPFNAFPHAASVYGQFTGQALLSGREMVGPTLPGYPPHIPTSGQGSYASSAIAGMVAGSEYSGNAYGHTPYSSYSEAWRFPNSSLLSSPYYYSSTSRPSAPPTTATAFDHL
Sequence of Disintegrin and metalloproteinase domain-containing protein 17 (P78536 whole entry, the tested form may be a part): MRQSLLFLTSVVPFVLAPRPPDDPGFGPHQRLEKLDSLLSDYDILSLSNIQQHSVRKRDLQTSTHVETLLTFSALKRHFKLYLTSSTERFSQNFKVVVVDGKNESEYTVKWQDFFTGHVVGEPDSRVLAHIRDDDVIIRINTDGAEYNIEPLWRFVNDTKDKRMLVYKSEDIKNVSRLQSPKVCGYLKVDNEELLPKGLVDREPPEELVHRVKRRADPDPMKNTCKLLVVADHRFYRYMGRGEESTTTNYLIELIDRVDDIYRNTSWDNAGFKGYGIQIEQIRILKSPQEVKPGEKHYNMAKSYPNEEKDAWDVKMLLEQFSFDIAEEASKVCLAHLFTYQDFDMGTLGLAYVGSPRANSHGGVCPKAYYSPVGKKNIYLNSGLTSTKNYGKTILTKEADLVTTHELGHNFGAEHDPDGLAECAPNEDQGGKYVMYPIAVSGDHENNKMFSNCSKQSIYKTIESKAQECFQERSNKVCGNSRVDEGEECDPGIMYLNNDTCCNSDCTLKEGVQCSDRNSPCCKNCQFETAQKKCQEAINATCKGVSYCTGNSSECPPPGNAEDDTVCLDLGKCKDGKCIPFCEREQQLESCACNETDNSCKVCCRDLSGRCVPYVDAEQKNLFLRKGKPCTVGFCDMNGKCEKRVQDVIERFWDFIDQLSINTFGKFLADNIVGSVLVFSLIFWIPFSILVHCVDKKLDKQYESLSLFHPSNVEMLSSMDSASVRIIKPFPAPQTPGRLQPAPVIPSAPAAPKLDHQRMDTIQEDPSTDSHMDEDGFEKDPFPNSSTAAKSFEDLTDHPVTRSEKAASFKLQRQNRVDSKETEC
Sequence of ATP-dependent molecular chaperone HSP82 (C4YTQ8 whole entry): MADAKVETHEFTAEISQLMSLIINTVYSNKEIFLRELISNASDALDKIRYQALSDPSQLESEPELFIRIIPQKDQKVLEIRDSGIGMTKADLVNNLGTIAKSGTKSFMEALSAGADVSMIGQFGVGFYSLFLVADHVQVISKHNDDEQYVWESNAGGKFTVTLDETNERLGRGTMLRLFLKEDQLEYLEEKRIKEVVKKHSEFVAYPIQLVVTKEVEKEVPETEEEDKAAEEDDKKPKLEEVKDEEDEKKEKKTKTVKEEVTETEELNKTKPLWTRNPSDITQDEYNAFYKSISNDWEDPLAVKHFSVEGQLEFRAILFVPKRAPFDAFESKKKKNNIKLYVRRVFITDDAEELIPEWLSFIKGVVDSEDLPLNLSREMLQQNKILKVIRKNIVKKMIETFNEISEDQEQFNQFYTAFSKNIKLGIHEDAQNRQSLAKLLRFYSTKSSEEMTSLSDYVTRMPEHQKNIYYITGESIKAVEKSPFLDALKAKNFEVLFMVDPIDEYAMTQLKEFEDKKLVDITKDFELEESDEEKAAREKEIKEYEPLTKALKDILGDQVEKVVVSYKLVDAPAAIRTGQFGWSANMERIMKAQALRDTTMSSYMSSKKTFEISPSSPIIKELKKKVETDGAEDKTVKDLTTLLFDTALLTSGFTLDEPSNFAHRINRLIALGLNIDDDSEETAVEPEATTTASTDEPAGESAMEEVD
Sequence of Kallikrein-7 (P49862 whole entry): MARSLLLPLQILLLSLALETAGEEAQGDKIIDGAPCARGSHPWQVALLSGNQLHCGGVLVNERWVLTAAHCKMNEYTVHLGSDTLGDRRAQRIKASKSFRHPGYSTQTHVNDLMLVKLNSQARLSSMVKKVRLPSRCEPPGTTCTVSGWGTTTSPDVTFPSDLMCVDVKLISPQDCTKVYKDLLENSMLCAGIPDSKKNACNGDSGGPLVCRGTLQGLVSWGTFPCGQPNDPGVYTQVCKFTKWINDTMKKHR
Sequence of Cytochrome P450 3A4 (P08684 whole entry): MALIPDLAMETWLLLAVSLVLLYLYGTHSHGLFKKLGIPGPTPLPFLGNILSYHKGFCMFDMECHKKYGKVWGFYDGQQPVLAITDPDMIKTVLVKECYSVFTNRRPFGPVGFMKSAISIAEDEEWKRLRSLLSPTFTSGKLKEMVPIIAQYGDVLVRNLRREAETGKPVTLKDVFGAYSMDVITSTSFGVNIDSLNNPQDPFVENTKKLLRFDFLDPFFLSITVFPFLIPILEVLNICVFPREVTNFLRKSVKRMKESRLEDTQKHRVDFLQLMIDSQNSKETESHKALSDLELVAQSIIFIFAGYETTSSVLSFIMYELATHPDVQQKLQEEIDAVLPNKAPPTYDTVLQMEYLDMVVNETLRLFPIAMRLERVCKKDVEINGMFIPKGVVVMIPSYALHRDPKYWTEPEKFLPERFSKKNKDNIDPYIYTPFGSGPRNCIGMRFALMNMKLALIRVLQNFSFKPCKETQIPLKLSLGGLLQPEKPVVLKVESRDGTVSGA

On to `O=S(=O)(Nc1cc(Sc2nc[nH]n2)c(O)c2ccccc12)c1ccc(F)cc1`, for which the cytotoxic concentration (CC50) in assay [1] was 14.3 µM (active).

On to `CC1CCCCN1Cc1c(O)ccc2c(=O)c(-c3nc4ccccc4s3)coc12` (stereo not drawn), for which the concentration at half-maximal activity (AC50) in [2] is 40.4 µM (active); in “cells [3]”, 44.8 µM (active); in “cells [4]” it was 47 µM (active).

In the case of `OC[C@@H]1[C@H](c2ccc(/C=C/c3ccccc3)cc2)[C@H]2CN(CCC(F)(F)F)CCCCN12`, the AC50 in assay [5] is 17.4 µM (active).

As to `CCn1c(S)nnc1-c1cc(-c2ccc(OC(C)C)cc2)nc2ccccc12`, the AC50 in assay [6] and in [7] was > 52 µM (inactive) throughout.

Consider `CCCNC(=O)N1[C@H](C#N)[C@H](c2ccc(-c3cccnc3)cc2)[C@@H]1CO`, for which the AC50 is 0.93 µM (active) in assay [8]; 10.2 µM (active) in assay [9]; 4.97 µM (active) in assay [10]; 1.61 µM (active) in assay [11]; > 70 µM (inactive) in assay [12].

For `CCN(CC)Cc1c(O)ccc2c(=O)c(Oc3ccccc3OC)coc12`, the EC50 at Kallikrein-7 was 13.1 µM (inactive). For the same compound, at Cytochrome P450 3A4, the half-maximal activity concentration (AC50) is 25.1 µM (inconclusive).

In the case of `C[C@H](CO)N1C[C@H](C)[C@H](CN(C)S(=O)(=O)c2ccc(F)cc2)Oc2ccc(NS(=O)(=O)c3ccc(Cl)cc3)cc2C1=O`, the AC50 is 18.9 µM (active) in the assay with HEK293, 18.9 µM (active) in assay [13], 10 µM (active) in [14] and > 39 µM (inactive) in assay [15].

Turning to `Cc1cc(C)c(-c2cc(NC(=O)COC(=O)c3ccc(C#N)cc3)n(-c3ccccc3)n2)cc1C`, the EC50 in assay [16] is > 150 µM (inactive); in assay [17], 0.092 µM (active); in assay [18] it was > 180 µM (inactive); in [19], > 160 µM (inactive). Also, the IC50 in [20] and in [21] was > 69.5 µM (inactive) in each case.

As for `COc1ccc2c(c1)C(C)=CC(C)(C)N2S(=O)(=O)c1ccc(Br)cc1`, the EC50 in assay [22] is 2.06 µM (active); in [23] it was 1.05 µM (active). Further, the concentration at half-maximal activity (AC50) was 7.63 µM (active) at Paired box protein Pax-8; 63 µM (active) in [24]; 15.3 µM (active) in [25]; 8.49 µM (active) in assay [26]; 12 µM (active) in [27]; 8.79 µM (active) in assay [28]. For the same compound, the AC50 is 75.6 µM (active) in assay [29]; 5.89 µM (active) in assay [30]; 4.64 µM (active) in assay [31]; 5.9 µM (active) in assay [32]; 16 µM (active) in assay [33].

For `Oc1ccc(C2CCN(c3ccnc4ccccc34)C2)cc1O` (stereo not drawn), the IC50 in assay [34] was 0.93 µM (active).

Values taken from ChEMBL document CHEMBL1201862, “PubChem BioAssay data set” (2004).
